These results are taken from US20040167034A1, “Emulsion and dispersion formulations and method” (priority 2001, published 2004).

For data set [1] the following is noted: background statement; cited from earlier work.
Data set [2] can be described thus: Stability of closantel and levamisole combination at 30° C. (HPLC). It is filed as physicochemical. Particulars: closantel and levamisole combination incubated at 30° C. As for the experimental part:
Stability of Closantel and Levamisole Combination at 30° C.
The mixture was analysed by HPLC at times zero, 3 and 12 months.

The nature of data set [3]: Pharmacokinetics of silymarin (plasma silybin a and b, HPLC). To be noted: in vivo, 260 mg. As for the experimental part: Pharmacokinetics of silymarin administered in various delivery systems, comparing a powdered extract of silymarin containing 28% silybin a and b and a silymarin:lecithin complex as described in Example 2 of silymarin containing the same amount of silybin a and b.
Silymarin was administered at a dose of 260 mg silybin a and b.
Blood samples were collected at 0, 2, 4, and 6 hours after administration and analysed by HPLC.
Silybin a and b were analysed as conjugated and unconjugated silybin a and b.

In the case of `[Cr]` [chromium], the absorption in data set [1] is on record as 1-3%.
`Cc1cc(C(C#N)c2ccc(Cl)cc2)c(Cl)cc1NC(=O)c1cc(I)cc(I)c1O` (stereo not drawn) [closantel]: in data set [2], the “content at 0 months” value stood at 3.75 g %, the “content at 3 months” value came to 3.72 g % and the “content at 12 months” value is listed as 3.69 g %.
On the same counts, the results for `c1ccc([C@H]2CN3CCSC3=N2)cc1` [levamisole] are 3.21 g %, 3.19 g % and 3.17 g %.
Turning to Silymarin, in data set [3], the “AUC of conjugated silybin A and B” value turned out to be 191 ng/h/mL; the “AUC of free silybin A and B” value is on record as 6 ng/h/mL.
